Data taken from patent US20140288074A1, “FUNGICIDAL PYRAZOLES” (E I DU PONT DE NEMOURS AND COMPANY, priority 2013, published 2014).
Marks after values point to notes of the source that are not given here.

Assays:
Assay type in all cases: in vivo
[1] = test system: Blumeria graminis f. sp. tritici; assay: Test G: preventive spray on wheat seedlings, wheat powdery mildew, visual disease rating;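 on all read-outs here: rated 8 days after spore dust inoculation at 20 °C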; settings: for Test G rating (disease control) / pest or weed control at 200 ppm: 200 ppm test suspension, Blumeria graminis f. sp. tritici inoculated the day after spraying
Outline: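 Wheat seedlings sprayed to run-off with 200 ppm suspension (about 800 g/ha; asterisked values 40 ppm) in acetone/water with 250 ppm Trem 014. Inoculated next day with B. graminis spore dust and held at 20 °C for 8 days. Visual rating, 0–100 % disease control versus controls; triplicate, averaged.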

[2] = test system: Puccinia recondita f. sp. tritici; assay: Test F: preventive spray on wheat seedlings, wheat leaf rust, visual disease rating; settings: for Test F rating (disease control) / pest or weed control at 200 ppm: 200 ppm test suspension, Puccinia recondita f. sp. tritici inoculated the day after spraying
Outline: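 Compounds in acetone/water (50/50) with 250 ppm Trem 014, sprayed to run-off on seedlings at 200 ppm (800 g/ha) or 40 ppm where marked. Inoculated next day, 24 h saturated atmosphere at 20° C then 6 days at 20° C; visual rating, 100 = full control vs controls, triplicate averaged.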

Botrytis cinerea = assay: Test A: preventive spray on tomato seedlings, tomato Botrytis, visual disease rating; settings: for Test A rating (disease control) / pest or weed control at 200 ppm: 200 ppm test suspension, Botrytis cinerea inoculated the day after spraying
Outline: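 Tomato seedlings were sprayed to run-off with test suspension, 200 ppm (≈800 g/ha) unless marked 40 ppm, in acetone/water with surfactant. They were inoculated with Botrytis cinerea spores next day, held 48 h saturated at 20 °C, then 3 days at 24 °C. Disease control was rated visually, 0–100 relative to controls, in triplicate.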

Septoria tritici = assay: Test D: preventive spray on wheat seedlings, wheat leaf blotch, visual disease rating; settings: for Test D rating (disease control) / pest or weed control at 200 ppm: 200 ppm test suspension, Septoria tritici inoculated the day after spraying
Outline: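 Wheat seedlings sprayed to run-off with 200 ppm suspension (≈800 g/ha; asterisked ratings 40 ppm), then inoculated with S. tritici spores next day. Held 48 h saturated at 24 °C, then 19 days at 20 °C. Visual rating 0–100% disease control versus controls, triplicate mean.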

[3] = test system: Puccinia recondita f. sp. tritici; assay: Test E: spray after inoculation of wheat seedlings, wheat leaf rust, visual disease rating; settings: sprayed after inoculation with Puccinia recondita f. sp. tritici
Method: General protocol for preparing test suspensions for Tests A-G: the test compounds were first dissolved in acetone in an amount equal to 3% of the final volume and then suspended at the desired concentration (in ppm) in acetone and purified water (50/50 mix by volume) containing 250 ppm of the surfactant Trem® 014 (polyhydric alcohol esters). The resulting test suspensions were then used in Tests A-G. Each test was conducted in triplicate, and the results were averaged. Spraying a 200 ppm test suspension to the point of run-off on the test plants was the equivalent of a rate of 800 g/ha. Unless otherwise indicated, the rating values indicate a 200 ppm test suspension was used. (An asterisk “*” next to the rating value indicates a 40 ppm test suspension was used.) Wheat seedlings were inoculated with a spore suspension of Puccinia recondita f. sp. tritici (the causal agent of wheat leaf rust) and incubated in a saturated atmosphere at 20° C. for 24 h, and then moved to a growth chamber at 20° C. for 2 days. At the end of this time the, the test suspension was sprayed to the point of run-off on the wheat seedlings, and then the seedlings were moved back to the growth chamber at 20° C. for 4 days. Upon removal, visual disease ratings were made. Results for Tests A-G are given in Table A. In the Table, a rating of 100 indicates 100% disease control and a rating of 0 indicates no disease control (relative to the controls). A hyphen (-) indicates no test results.

SMILES | Test G rating (disease control) [1] | Test F rating (disease control) [2] | Test A rating (disease control) (Botrytis cinerea) | Test D rating (disease control) (Septoria tritici) | Test E rating (disease control) ([3]; 200 ppm test suspension) | pest or weed control at 200 ppm ([1]; 192 h) | pest or weed control at 200 ppm ([2]; 168 h) | pest or weed control at 200 ppm (Botrytis cinerea; 120 h) | pest or weed control at 200 ppm (Septoria tritici; Zymoseptoria tritici, 504 h) | pest or weed control at 40 ppm ([1]; 192 h, 40 ppm test suspension (asterisk), Blumeria graminis f. sp. tritici) | pest or weed control at 40 ppm ([2]; 168 h, 40 ppm test suspension (asterisk), Puccinia recondita f. sp. tritici, preventive) | pest or weed control at 40 ppm (Botrytis cinerea; 120 h, 40 ppm test suspension (asterisk), Botrytis cinerea) | pest or weed control at 40 ppm (Septoria tritici; Zymoseptoria tritici, 504 h, 40 ppm test suspension (asterisk), Septoria tritici) | Test E rating (disease control) ([3]; 40 ppm test suspension (asterisk))
C=CCC(C)(C)C(O)c1c(-c2c(F)cccc2F)c(C)nn1C (centres unmarked) [Compound 12] | 99% | 41% | 0% | 83% | 0% | – | – | – | – | – | – | – | – | –
CCCNc1c(-c2ccc(Cl)cc2Cl)c(C)nn1C [Compound 3] | 0% | 0% | 65% | 92% | 0% | – | – | – | – | – | – | – | – | –
Cc1nn(C)c(C(O)C(C)C)c1-c1ccc(F)cc1Cl (stereo not drawn) [Compound 2, 4-(2-chloro-4-fluorophenyl)-1,3-dimethyl-α-(1-methylethyl)-1H-pyrazole-5-methanol] | – | – | – | – | 26% | 97% | 99% | 100% | 100% | – | – | – | – | –
Cc1nn(C)c(NC2CCCCC2)c1-c1ccc(F)cc1F [Compound 6, N-cyclohexyl-4-(2,4-difluorophenyl)-1,3-dimethyl-1H-pyrazol-5-amine] | – | – | – | – | 68% | 91% | 17% | 99% | 100% | – | – | – | – | –
Cc1nn(C)c(C(O)C(C)(C)CCC#N)c1-c1c(F)cccc1F (centres unmarked) [Compound 9] | 53% | 9% | 26% | 98% | 0% | – | – | – | – | – | – | – | – | –
CCCC(O)c1c(-c2c(F)cccc2F)c(C)nn1C (centres unmarked) [Compound 14] | 99% | 74% | 33% | 62% | 0% | – | – | – | – | – | – | – | – | –
CCCCC(CC)C(O)c1c(-c2c(F)cccc2F)c(C)nn1C (centres unmarked) [Compound 13] | 96% | 28% | 0% | 55% | 0% | – | – | – | – | – | – | – | – | –
Cc1nn(C)c(C(O)CC(C)C)c1-c1c(F)cccc1Cl (centres unmarked) [Compound 20] | 99% | 86% | 92% | 100% | 0% | – | – | – | – | – | – | – | – | –
Cc1nn(C)c(C(O)C2=CCCCC2)c1-c1c(F)cccc1F (centres unmarked) [Compound 10] | 85% | 86% | 99% | 92% | 0% | – | – | – | – | – | – | – | – | –
CCC(C)C(O)c1c(-c2ccc(F)cc2Cl)c(C)nn1C (stereo not drawn) [Compound 8, 4-(2-chloro-4-fluorophenyl)-1,3-dimethyl-α-(1-methylpropyl)-1H-pyrazole-5-methanol] | – | – | – | – | 0% | 99% | 100% | 95% | 100% | – | – | – | – | –
Cc1nn(C)c(C(O)CC(C)C)c1-c1c(F)cccc1F (centres unmarked) [Compound 11] | 99% | 89% | 67% | 98% | 0% | – | – | – | – | – | – | – | – | –
CCC(C)C(O)c1c(-c2c(F)cccc2F)c(C)nn1C (centres unmarked) [Compound 15] | 99% | 74% | 67% | 100% | 9% | – | – | – | – | – | – | – | – | –
CCCC(O)c1c(-c2c(F)cccc2Cl)c(C)nn1C (centres unmarked) [Compound 21] | 99% | 74% | 75% | 97% | 0% | – | – | – | – | – | – | – | – | –
Cc1nn(C)c(NCC(C)C)c1-c1ccc(Cl)cc1Cl [Compound 4, 4-(2,4-dichlorophenyl)-1,3-dimethyl-N-(2-methylpropyl)-1H-pyrazol-5-amine] | – | – | – | – | 26% | 93% | 0% | 99% | 99% | – | – | – | – | –
CCC(C)C(O)c1c(-c2c(F)cccc2Cl)c(C)nn1C (stereo not drawn) [Compound 19, 4-(2-chloro-6-fluorophenyl)-1,3-dimethyl-α-(1-methylpropyl)-1H-pyrazole-5-methanol] | – | – | – | – | – | – | – | – | – | 95% | 19% | 77% | 89% | 0* %
CCCCNc1c(-c2ccc(Cl)cc2Cl)c(C)nn1C [Compound 5, N-butyl-4-(2,4-dichlorophenyl)-1,3-dimethyl-1H-pyrazol-5-amine] | – | – | – | – | 79% | 58% | 27% | 98% | 88% | – | – | – | – | –
